Laboratory results taken from patent publication US20070129419A1, “Serotonin transporter (SERT) inhibitors for the treatment of depression and anxiety” (priority 2005, published 2007).
Where two headings read alike, the source gives them in different places.

Assays:
recombinant human SERT = target: T1, recombinant human SERT (Homo sapiens, UniProt P31645); test: hSERT SPA binding assay ([3H]citalopram displacement, HEK-293 membranes)
T1 construct: expressed in transfected cells; membrane preparation
Description: HEK-293 cells stably expressing recombinant human SERT are maintained with DMEM high glucose with 10% FBS, 300 μg/ml G418 and 2 mM L-Glutamine and incubated at 37° C. with 5% CO2. Cells are released from culture flasks using PBS for 1-2 min. The cells are subsequently centrifuged at 1000 g's for 5 min and resuspended in PBS prior to being used in the membrane preparation.
Cells are homogenized using a Polytron in 50 mM Tris (pH 7.4). Centrifuged at 48,000×g for 15 min, and the pellet resuspended in fresh buffer. After a second centrifugation, the pellet is re-homogenized and resuspended in fresh buffer. Typically, membrane portions are aliquoted in 3 mg/ml (w:v). and stored at −80° C.
A serial dilution of test compounds in 50 mM Tris-HCl, 120 mM NaCl, KCl 5 mM (pH 7.4) is made in a white Optiplate (Packard) (100 μl/well) and the radioligand ^3[H] Citalopram (Specific activity: 60-86 Ci/mmol, Final concentration: 1 nM) is added at 50 μl/well. Membrane and beads are prepared to a ratio of 5 μg:0.6 mg, with 0.6 mg PVT-WGA Amersham beads (Cat#RPQ0282V) added per well. 50 μl of the membrane/bead mixture is added to the assay plate for a final volume of 200 μl. The mixtures are allowed to stand at room temperature for one hour, and are then counted on a Packard TopCount.
The % inhibition is calculated for each compound tested (with 100% binding being the value obtained with the incubation of membrane/beads and radioligand in buffer without compound minus the non-specific binding measured in presence of 10 μM Fluoxetine). The concentration producing 50% inhibition (IC50) is determined using an iterative non-linear curve fitting technique. The inhibition dissociation constant (Ki) of each compound is determined according to the method of Cheng-Prusoff, decribed in Biochem. Pharmacol., 1973, 22(23), pages 3099-3108.

human NK-1 receptor = target: T2, human NK-1 receptor (Homo sapiens, UniProt P25103); test: hNK-1 binding assay ([3H]substance P displacement, CHO cells); details: [3H]substance P 0.6 nM, CHO cells transfected with human NK-1 receptor; read-out: pKi hNK1 (converted)
T2 construct: expressed in transfected cells; host or cells: CHO cells, Semliki virus expression system; membrane suspension
Description: The affinity of test compounds for the NK-1 receptor was evaluated at human NK-1 receptors in CHO cells transfected with the human NK-1 receptor using the Semliki virus expression system and radiolabelled with [^3H]substance P (final concentration 0.6 nM). Binding assays were performed in HEPES buffer (50 mM, pH 7.4) containing BSA (0.04%) leupeptin (8 μg/ml), MnCl2 (3 mM) and phosphoramidon (2 μM). Binding assays consisted of 250 μl of membrane suspension (1.25×10^5 cells/assay tube), 125 μl of buffer of displacing agent and 125 μl of [^3H]substance P. Displacement curves were determined with at least ten concentrations of the compound. The assay tubes were incubated for 60 min at room temperature after which time the tube contents were rapidly filtered under vacuum through GF/C filters presoaked for 60 min with PEI (0.3%) with 2×2 ml washes of HEPES buffer (50 mM, pH 7.4). The radioactivity retained on the filters was measured by scintillation counting. All assays were performed in duplicate in at least 2 separate experiments.
The inhibition dissociation constant (Ki) of each compound for NK1 is determined as described above for hSERT.

[1] = [3H]citalopram 1 nM, HEK-293 membranes expressing human SERT, read-out: pKi hSERT (converted)

T1 sequence (P31645 whole entry): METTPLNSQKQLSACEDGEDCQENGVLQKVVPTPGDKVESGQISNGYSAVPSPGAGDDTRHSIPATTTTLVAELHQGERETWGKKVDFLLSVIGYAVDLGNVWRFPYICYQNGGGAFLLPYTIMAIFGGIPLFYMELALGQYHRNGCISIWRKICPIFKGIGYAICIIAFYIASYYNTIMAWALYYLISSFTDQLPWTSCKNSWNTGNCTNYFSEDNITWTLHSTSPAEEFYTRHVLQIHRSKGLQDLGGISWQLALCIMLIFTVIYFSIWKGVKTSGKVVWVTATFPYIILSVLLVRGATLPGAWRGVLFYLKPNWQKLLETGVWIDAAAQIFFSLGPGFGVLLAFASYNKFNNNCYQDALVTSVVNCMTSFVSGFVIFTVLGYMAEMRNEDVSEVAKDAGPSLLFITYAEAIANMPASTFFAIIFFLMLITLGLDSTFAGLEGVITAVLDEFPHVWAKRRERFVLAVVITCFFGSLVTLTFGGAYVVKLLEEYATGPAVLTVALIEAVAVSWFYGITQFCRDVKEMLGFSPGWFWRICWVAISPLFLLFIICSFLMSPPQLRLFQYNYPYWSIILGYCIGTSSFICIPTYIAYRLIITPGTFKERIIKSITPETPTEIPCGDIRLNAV
T2 sequence (P25103 whole entry): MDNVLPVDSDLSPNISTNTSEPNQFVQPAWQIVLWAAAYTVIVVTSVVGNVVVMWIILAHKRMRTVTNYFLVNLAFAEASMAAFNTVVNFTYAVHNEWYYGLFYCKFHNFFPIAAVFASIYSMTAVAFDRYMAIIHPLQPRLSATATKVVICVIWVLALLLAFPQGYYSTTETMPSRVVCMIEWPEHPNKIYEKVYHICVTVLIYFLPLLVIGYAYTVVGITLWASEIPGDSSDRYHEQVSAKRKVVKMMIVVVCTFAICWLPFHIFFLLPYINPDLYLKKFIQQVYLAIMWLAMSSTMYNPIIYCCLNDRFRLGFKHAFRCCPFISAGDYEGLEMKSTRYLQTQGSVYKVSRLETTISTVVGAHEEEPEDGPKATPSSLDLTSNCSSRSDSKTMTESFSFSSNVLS

| Ki (human NK-1 receptor) [µM] | Ki (recombinant human SERT; [1]) [µM] | SMILES | Ki (recombinant human SERT) [µM] |
| --- | --- | --- | --- |
| 0.0468 | 0.00589 | Fc1cccc([C@@H]2CNC[C@@H]2COCc2cc(C(F)(F)F)cc(C(F)(F)F)c2)c1 [2 of I] |  |
| 0.0501 | 0.00347 | Fc1ccccc1[C@@H]1CNC[C@@H]1COCc1cc(C(F)(F)F)cc(C(F)(F)F)c1 [3 of I] |  |
| 0.0316 | 0.00813 | FC(F)(F)c1cc(COC[C@H]2CNC[C@H]2c2cccc(Cl)c2)cc(C(F)(F)F)c1 [5 of I] |  |
| 0.0437 | 0.0102 | FC(F)(F)c1cc(COC[C@H]2CNC[C@H]2c2ccccc2Cl)cc(C(F)(F)F)c1 [6 of I] |  |
| 0.0288 | 0.00759 | Cc1ccccc1[C@@H]1CNC[C@@H]1COCc1cc(C(F)(F)F)cc(C(F)(F)F)c1 [7 of I] |  |
| 0.0437 | 0.0049 | FC(F)(F)c1cc(COC[C@H]2CNC[C@H]2c2ccccc2)cc(C(F)(F)F)c1 [8 of I] |  |
| 0.0417 | 0.00589 | Brc1cc(Br)cc(COC[C@H]2CNCC2c2ccccc2)c1 (stereo partly shown) [9 of I] |  |
| 0.257 | 0.00457 | Cc1cc(C)cc(COC[C@H]2CNC[C@H]2c2ccccc2)c1 [10 of I] |  |
| 0.224 | 0.00575 | Fc1cc(COC[C@H]2CNC[C@H]2c2ccccc2)cc(C(F)(F)F)c1 [11 of I] |  |
| 0.676 | 0.011 | FC(F)(F)c1cccc(COC[C@H]2CNC[C@H]2c2ccccc2)c1 [12 of I] |  |
| 0.759 | 0.0138 | FC(F)(F)Oc1cccc(COC[C@H]2CNC[C@H]2c2ccccc2)c1 [13 of I] |  |
| 0.741 | 0.0204 | COc1cc(COC[C@H]2CNC[C@H]2c2ccccc2)cc(OC)c1 [14 of I] |  |
| 0.646 | 0.0708 | FC(F)(F)c1ccccc1COC[C@H]1CNC[C@H]1c1ccccc1 [15 of I] |  |
| 0.0263 | 0.0229 | FC(F)(F)c1cc(CNC[C@H]2CNC[C@H]2c2ccccc2)cc(C(F)(F)F)c1 [16 of I] |  |
| 0.0316 | 0.00813 | CN(Cc1cc(C(F)(F)F)cc(C(F)(F)F)c1)C[C@H]1CNC[C@H]1c1ccccc1 [17 of I] |  |

| SMILES | Ki (human NK-1 receptor) [µM] | Ki (recombinant human SERT; [1]) [µM] | Ki (recombinant human SERT) [µM] |
| --- | --- | --- | --- |
| Fc1ccc([C@@H]2CNC[C@@H]2COCc2cc(C(F)(F)F)cc(C(F)(F)F)c2)cc1 [1 of I] | 0.295 |  | 0.00275 |
| FC(F)(F)c1cc(COC[C@H]2CNC[C@H]2c2ccc(Cl)cc2)cc(C(F)(F)F)c1 [4 of I] | 0.0537 | 0.00447 |  |
